Data as given in BindingDB's records for doi:10.1021/jm00352a017 (1983).

Assays:
[1] = Inhibition of rat kidney pyruvate kinase (PK-K)
[2] = Inhibition of rat kidney pyruvate kinase (PK-K) at 6.7 mM
[3] = Michaelis-Menten constant for inhibition of rat kidney pyruvate kinase (PK-K)
[4] = Inhibition of rat liver pyruvate kinase (PK-L) at 3.6 mM

Structure (SMILES)	Ki [1]	also measured
CCNc1nc2c(N)ncnc2n1C1O[C@H](COP(=O)(O)OP(=O)(O)O)[C@@H](O)[C@H]1O (stereo partly specified)	2.9 mM	–
CSc1nc2c(N)ncnc2n1C1O[C@H](COP(=O)(O)OP(=O)(O)O)[C@@H](O)[C@H]1O (stereo partly specified)	5 mM	–
CCSc1nc2c(N)ncnc2n1C1O[C@H](COP(=O)(O)OP(=O)(O)O)[C@@H](O)[C@H]1O (stereo partly specified)	3.9 mM	–
C[C@@H](OP(=O)(O)OP(=O)(O)O)[C@H]1OC(n2cnc3c(N)ncnc32)[C@H](O)[C@@H]1O (stereo partly specified)	–	Ki [2]: 10.9 mM; Ki [3]: 8 mM
CO[C@H]1[C@@H](O)[C@H](n2cnc3c(N)ncnc32)O[C@@H]1COP(=O)(O)OP(=O)(O)O [[5-(6-amino-9H-purin-9-yl)-4-hydroxy-3-methoxytetrahydrofuran-2-yl]methyl trihydrogen diphosphate]	–	Ki [4]: 7 mM
